Where two headings read alike, the source gives them in different places.
Assays:
Format in all cases: cell-based
[1] = target: T1, PfENT1 (Plasmodium falciparum, UniProt Q8IDM6); conditions: primary HTS, compounds at 10 μM, 125 μM 5-FUrd
T1 construct: expressed in transfected cells; host or cells: fui1Δ yeast (Saccharomyces cerevisiae), co-expressing GFP
How it was run: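 fui1Δ yeast expressing PfENT1 and GFP were grown with 125 μM 5-fluorouridine, so growth reflects blocked 5-FUrd uptake. Compounds were screened at 10 μM. Growth scored by OD620 turbidity and GFP fluorescence, and hits had to be positive on both.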

[2] = test system: P. falciparum 3D7 parasites; test: [3H]adenosine uptake into trophozoite-stage P. falciparum 3D7 parasites; conditions: Plasmodium falciparum, uptake over 15 minutes, Mean ± SD, N ≧ 3
Description: FIGS. 5A-E are graphs and images reflecting the inhibitory effects of selected PfENT1 inhibiting compounds with P. falciparum. FIGS. 5A-C are graphs illustrating the inhibitory effects of selected PfENT1 inhibiting compounds with P. falciparum.

[3] = test system: P. falciparum parasites (3D7 strain); test: Plasmodium falciparum cytotoxicity assay (3D7 strain, SYBR-Green); conditions: 72-96 hours, Mean ± SD
Procedure: Plasmodium falciparum Cytotoxicity Assay
P. falciparum parasites (3D7 strain-chloroquine sensitive) are grown in in vitro culture in human erythrocytes. Each well is inoculated with a low density of parasites in standard parasite growth media with supplemented hypoxanthine (10 or 367 μM). Increasing concentrations of drugs are added and parasites are allowed to grow for 72-96 hours in 5% CO2/5% O2/90% N2 gas at 37° C. At the end of the experiment, parasites are lysed, SYBR-Green dye in lysis solution is added and the fluorescence intensity is measured for each well.

[4] = target: T2, PfENT1-CO (Plasmodium falciparum, UniProt Q8IDM6); test: [3H]adenosine uptake into PfENT1-CO expressing ade2Δ yeast; conditions: uptake over 15 minutes; Mean ± SD, N ≧ 3
T2 construct: expressed in transfected cells; host or cells: purine auxotrophic ade2Δ yeast (Saccharomyces cerevisiae)
Description: FIGS. 4A-C are graphs showing the validation of selected compounds identified as Plasmodium falciparum Equilibrative Nucleoside Transporter Type I (PfENT1) inhibitors in the high-throughput screen (HTS). […] The means values from single experiments are shown. In the key, CQ=chloroquine, and the Table 1 compounds are referenced as symbols indicating HTS rank #1-7, 13, and 19.
(§1) The means values from single experiments are shown. In the key, CQ=chloroquine, and the Table 1 compounds are referenced as symbols indicating HTS rank #1-7, 13, and 19. In this assay, inhibitors of PfENT1 […] yeast growth (FIGS. 4B-C).

[5] = test system: Dd2 parasite; test: Plasmodium falciparum parasite viability assay (Dd2); conditions: Dd2, high purine media, Mean ± SD
[6] = target: T3, PfENT1-HA-CO (Plasmodium falciparum, UniProt Q8IDM6); test: Concentration-dependent rescue of PfENT1-HA-CO-expressing fui1Δ yeast from 5-FUrd induced death
T3 construct: HA; expressed in transfected cells; host or cells: fui1Δ yeast (Saccharomyces cerevisiae)
Procedure: In the primary screen the compounds were tested at a concentration of 10 μM. Hits were identified by the growth of fui1Δ yeast expressing PfENT1 and Green Fluorescent Protein (GFP) in the presence of the cytotoxic nucleoside 5-fluorouridine (5-FUrd). 5-FUrd is transported by PfENT1. PfENT1 expressing fui1Δ yeast will only grow in the presence of 125 μM 5-FUrd if a PfENT1 inhibitor blocks the uptake of 5-FUrd into the yeast. Significant yeast growth in the HTS in 384 well plates was determined by two criteria: 1) turbidity as determined by the optical density at 620 nm (OD620) and 2) GFP fluorescence intensity. Positive responses were signal intensities greater than four standard deviations above the mean of the negative growth control wells. Hits had to be positive by both criteria. From the library screen, 171 chemical entities were identified as positive by both criteria (Table 2).
Of the 171 hits from the primary HTS, nine were chosen for more extensive validation using a series of secondary assays. These nine compounds included the top seven hits (HTS rank #1-7 as indicated in Tables 1 and 2), the first hit identified (compound HTS rank #19) and compound HTS rank #13, which was a unique chemical scaffold relative to the other 8 compounds. The secondary assays used to validate the nine selected hits include 1) repeat of the primary HTS using a series of compound concentrations to determine the concentration-response relationship for each compound, 2) testing in an alternative yeast-based assay in purine auxotrophic ade2Δ yeast expressing PfENT1 (described below, FIG. 1 and FIG. 4B), and 3) a Plasmodium falciparum cytotoxicity assay (described below, FIGS. 5A-B.). These assays allowed further confirmation the hits, determining the concentration-response relationships in the yeast-based assays and the concentration dependence of their ability to kill Plasmodium falciparum parasites during growth in in vitro culture. There was a roughly linear correlation between the compounds' IC50s measured in the two yeast-based assays. All nine compounds were tested in the P. falciparum cytotoxicity assay (FIGS. 5A-B).
as §1

[7] = 3D7, high purine media (hypoxanthine 367 μM), read-out: IC50 3D7 parasite viability-high purine media
[8] = 3D7, low purine media (hypoxanthine 10 μM), read-out: IC50 3D7 parasite viability-low purine media

T3 sequence (Q8IDM6 whole entry): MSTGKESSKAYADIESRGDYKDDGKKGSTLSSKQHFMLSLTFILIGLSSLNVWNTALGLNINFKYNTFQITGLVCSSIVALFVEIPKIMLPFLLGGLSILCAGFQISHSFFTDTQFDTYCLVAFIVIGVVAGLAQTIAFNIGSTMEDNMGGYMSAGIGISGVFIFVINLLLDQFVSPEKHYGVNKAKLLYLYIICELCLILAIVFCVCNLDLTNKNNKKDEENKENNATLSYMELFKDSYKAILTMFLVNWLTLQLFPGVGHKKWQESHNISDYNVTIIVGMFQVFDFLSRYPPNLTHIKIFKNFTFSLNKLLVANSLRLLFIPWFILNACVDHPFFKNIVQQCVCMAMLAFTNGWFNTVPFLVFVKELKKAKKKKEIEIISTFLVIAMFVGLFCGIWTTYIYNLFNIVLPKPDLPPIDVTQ
T2 sequence (Q8IDM6 whole entry): as above
T1 sequence (Q8IDM6 whole entry): as above

Compound: COc1cc(COc2ccc3c(C)cc(=O)oc3c2)cc(OC)c1OC [HTS Rank #3, 4-methyl-7-[(3,4,5-trimethoxybenzyl)oxy]-2H-chromen-2-one]
- Avg Normalized % maximal activity [1]: 84.71%
- IC50 [2]: 0.0064 ± 0.003 µM
- IC50 [3, 7]: 41 ± 4.3 µM
- IC50 [3, 8]: 19.2 ± 4.3 µM
- IC50 [4]: 0.0024 ± 0.0015 µM
- IC50 [5]: 36.2 ± 6 µM
- IC50 [6]: 2.3 ± 0.9 µM

Compound: O=C(Nc1ccc2nc(NC(=O)c3ccco3)sc2c1)c1ccco1 [compound 1]
- Avg Normalized % maximal activity [1]: 97.22%
- IC50 [2]: 0.0054 ± 0.0029 µM
- IC50 [3, 7]: 37.7 ± 2 µM
- IC50 [3, 8]: 31.1 ± 4.7 µM
- IC50 [4]: 0.003 ± 0.0013 µM
- IC50 [5]: 25.8 ± 1.3 µM
- IC50 [6]: 0.8 µM

Compound: O=C(Nc1ccc(-c2nc3ncccc3o2)cc1)c1ccccc1Br [compound 2, 2-bromo-N-(4-[1,3]oxazolo [4,5-b]pyridin-2-ylphenyl)benzamide]
- Avg Normalized % maximal activity [1]: 91.94%
- IC50 [2]: 0.028 ± 0.0123 µM
- IC50 [3, 7]: 53.4 ± 11.1 µM
- IC50 [3, 8]: 31.2 ± 7.7 µM
- IC50 [4]: 0.0101 ± 0.0084 µM
- IC50 [5]: 52.4 ± 5.7 µM
- IC50 [6]: 6 ± 1.7 µM

Compound: O=C(Nc1ccc(-c2nnc(-c3ccco3)o2)cc1)c1ccco1 [compound 4, N-{4-[5-(2-furyl)-1,3,4-oxadiazol-2-yl]phenyl}-2-furamide]
- Avg Normalized % maximal activity [1]: 74.03%
- IC50 [2]: 0.0458 ± 0.0241 µM
- IC50 [3, 7]: 14.7 ± 1.9 µM
- IC50 [3, 8]: 15 ± 1.5 µM
- IC50 [4]: 0.0137 ± 0.0075 µM
- IC50 [5]: 15.3 ± 2.7 µM
- IC50 [6]: 5.7 ± 0.8 µM

Compound: Cn1cc(C(=O)C(=O)Nc2ccc(C(=O)N3CCCC3)cc2)c2ccccc21 [compound 5, 2-(1-methyl-1H-indol-3-yl)-2-oxo-N-[4-(pyrrolidin-1-ylcarbonyl)phenyl]acetamide]
- Avg Normalized % maximal activity [1]: 64.07%
- IC50 [2]: 0.0386 ± 0.0201 µM
- IC50 [3, 7]: 33.1 ± 0.5 µM
- IC50 [3, 8]: 35.5 ± 0.7 µM
- IC50 [4]: 0.0227 ± 0.0072 µM
- IC50 [5]: 28.9 ± 2.6 µM
- IC50 [6]: 6.5 ± 1.5 µM

Compound: O=C(Nc1cccc(-c2nc3ncccc3o2)c1)c1cccc(F)c1 [compound 6, 3-fluoro-N-(3-[1,3]oxazolo [4,5-b]pyridin-2-ylphenyl)benzamide]
- Avg Normalized % maximal activity [1]: 59.06%
- IC50 [2]: 0.0198 ± 0.0129 µM
- IC50 [3, 7]: 33.7 ± 5 µM
- IC50 [3, 8]: 34.8 ± 2.4 µM
- IC50 [4]: 0.0096 ± 0.0074 µM
- IC50 [5]: 38.8 ± 4.9 µM
- IC50 [6]: 5.7 ± 1.3 µM

Compound: COc1ccccc1C(=O)Nc1cccc(-c2nc3ncccc3o2)c1 [compound 7, 2-methoxy-N-(3-[1,3]oxazolo [4,5-b]pyridin-2-ylphenyl)benzamide]
- Avg Normalized % maximal activity [1]: 55.05%
- IC50 [2]: 0.0248 ± 0.0174 µM
- IC50 [3, 7]: 44.8 ± 3.8 µM
- IC50 [3, 8]: 43.6 ± 4.4 µM
- IC50 [4]: 0.0109 ± 0.0068 µM
- IC50 [5]: 31 ± 0.6 µM
- IC50 [6]: 6.4 ± 0.9 µM

Compound: Cc1ccccc1/C=C/c1nc2ccccc2c(=O)[nH]1 [compound 13, 2-[2-(2-methylphenyl)vinyl]-4(3H)-quinazolinone]
- Avg Normalized % maximal activity [1]: 24.69%
- IC50 [2]: 0.0216 ± 0.0142 µM
- IC50 [3, 7]: 6.7 ± 0.5 µM
- IC50 [3, 8]: 6.9 ± 0.4 µM
- IC50 [5]: 2.6 ± 0.2 µM
- IC50 [6]: 4.7 ± 2.9 µM

Compound: O=C(Nc1ccc(Cl)c(-c2nc3ncccc3o2)c1)c1cccs1 [compound 19, N-(4-chloro-3-[1,3]oxazolo [4,5-b]pyridin-2-ylphenyl)-2-thiophenecarboxamide]
- Avg Normalized % maximal activity [1]: 21.24%
- IC50 [2]: 0.0179 ± 0.0127 µM
- IC50 [3, 7]: 42.9 ± 2.8 µM
- IC50 [3, 8]: 43.2 ± 2.9 µM
- IC50 [4]: 0.0384 ± 0.0165 µM
- IC50 [5]: 37.4 ± 1.6 µM
- IC50 [6]: 5.4 ± 0.8 µM
